Here are results for 13 compounds from patent US11185074B2, “Microbiocidal quinoline (thio)carboxamide derivatives” (SYNGENTA PARTICIPATIONS AG, priority 2017, dated 2021).

For data set [1], the system named is Botryotinia fuckeliana (Botrytis cinerea). The experiment in a line: Botryotinia fuckeliana (Botrytis cinerea) / liquid culture (gray mould). It counts as cell-based. The following applies: 72 h, 20 ppm, liquid culture, inhibition of growth photometrically 3-4 days after application, compared to untreated control, read-out: control of Botryotinia fuckeliana.
In data set [2] the test system is Glomerella lagenarium (Colletotrichum lagenarium). The experiment in a line: Glomerella lagenarium (Colletotrichum lagenarium) / liquid culture (anthracnose). The format is cell-based. As to conditions: Colletotrichum orbiculare; 20 ppm; liquid culture, inhibition of growth photometrically 3-4 days after application; compared to untreated control; read-out: control of Glomerella lagenarium.

The subject of data set [3] is Fusarium culmorum. The experiment in a line: microbe, parasite or virus in culture. As to conditions: read-out: control of Fusarium culmorum. It counts as cell-based.
Data set [4] relates to Monographella nivalis (Microdochium nivale). Nature of the data set: Monographella nivalis (Microdochium nivale) / liquid culture (foot rot cereals). The format is cell-based. As to conditions: 96 h, inhibition of growth photometrically 4-5 days after application, compared to untreated control.
The subject of data set [5] is Magnaporthe grisea (Pyricularia oryzae). Nature of the data set: whole plant or invertebrate. It counts as in vivo. As to conditions: foliar, read-out: control of Magnaporthe grisea.
The test system of data set [6] is Fusarium culmorum. The experiment in a line: whole plant or invertebrate. As to conditions: in Triticum aestivum, read-out: control of Fusarium culmorum. It counts as in vivo, Fusarium culmorum on wheat spikelets cv. Monsun.
In data set [7] the test system is Magnaporthe grisea (Pyricularia oryzae). The experiment in a line: microbe, parasite or virus in culture. It counts as cell-based. As to conditions: 72 h, read-out: control of Magnaporthe grisea.
The test system of another data set is Sclerotinia sclerotiorum. The experiment in a line: Sclerotinia sclerotiorum / liquid culture (cottony rot). As to conditions: 72 h, read-out: control of Sclerotinia sclerotiorum.
For data set [8], the system named is Gibberella zeae (Fusarium graminearum). Nature of the data set: whole plant or invertebrate. The format is in vivo. As to conditions: in Triticum aestivum, 144 h, read-out: control of Gibberella zeae.

Description for Sclerotinia sclerotiorum: Sclerotinia sclerotiorum/Liquid Culture (Cottony Rot)
Mycelia fragments of a newly grown liquid culture of the fungus are directly mixed into nutrient broth (Vogels broth). After placing a (DMSO) solution of test compound into a microtiter plate (96-well format) the nutrient broth containing the fungal material is added. The test plates are incubated at 24° C. and the inhibition of growth is determined photometrically 3-4 days after application.

As to `CC(C)(CCc1cccc(C(F)(F)F)c1)NC(=O)c1cnc2c(F)cccc2c1` [E-27], the inhibition of growth at 20 ppm (in data set [1]; in [2]; with Fusarium culmorum [3]; in [4]) was no less than 80% throughout. Further, in data set [5], the pest or weed control at 200 ppm was no less than 80%.

`C=C(Cl)CC(C)(CC1CCCCC1)NC(=O)c1cnc2c(F)cccc2c1` (stereo not shown) [E-37] returned a melting point of 109 to 111 °C. Besides, the inhibition of growth at 20 ppm in data set [1] was no less than 80%. Also, the inhibition of growth at 20 ppm in data set [2] is no less than 80%. Also, in the data set on Fusarium culmorum [3], the inhibition of growth at 20 ppm is no less than 80%. Also, the pest or weed control at 200 ppm in the data set with Fusarium culmorum [6] was no less than 80%. This compound also showed an inhibition of growth at 20 ppm in data set [4] of no less than 80%. For the same compound, in data set [7], the inhibition of growth at 20 ppm was no less than 80%. Moreover, the pest or weed control at 200 ppm in data set [5] was no less than 80%. Further, the inhibition of growth at 20 ppm in the data set on Sclerotinia sclerotiorum was no less than 80%.

For the compound `CCCC(C)CC(C)NC(=O)c1cnc2c(C)cccc2c1` (stereo not shown) [E-42], the inhibition of growth at 20 ppm (in data set [1]; in [2]; with Fusarium culmorum [3]; in data set [4]) was no less than 80% in each case. The pest or weed control at 200 ppm in data set [5] is no less than 80%.

For the compound `CCCC(C)CC(C)(CC(F)(F)F)NC(=O)c1cnc2c(C)cccc2c1` (stereo not shown) [E-47], the inhibition of growth at 20 ppm (in data set [1]; in data set [2]; in the data set with Fusarium culmorum [3]; in data set [4]; in data set [7]) was no less than 80% in each case. Also, the pest or weed control at 200 ppm (with Fusarium culmorum [6]; in data set [5]) was no less than 80% throughout.

With `C=C(C)CC(C)(CC(=C)C)NC(=O)c1cnc2c(F)c(F)ccc2c1` [E-56], the melting point is 117 to 120 °C. Moreover, the inhibition of growth at 20 ppm in data set [1] is no less than 80%. Besides, in data set [2], the inhibition of growth at 20 ppm was no less than 80%. Moreover, in the data set with Fusarium culmorum [3], the inhibition of growth at 20 ppm was no less than 80%. Further, the inhibition of growth at 20 ppm in data set [4] is no less than 80%. Further, the inhibition of growth at 20 ppm in data set [7] was no less than 80%. Besides, in data set [5], the pest or weed control at 200 ppm was no less than 80%. Moreover, the inhibition of growth at 20 ppm in the data set on Sclerotinia sclerotiorum was no less than 80%.

In turn, `CC(CC1CCCC1)(CC(F)(F)F)NC(=O)c1cnc2c(F)c(F)ccc2c1` (stereo not shown) [E-57] returned a melting point of 115 to 116 °C. The inhibition of growth at 20 ppm in [1] is no less than 80%. Moreover, the inhibition of growth at 20 ppm in data set [2] is no less than 80%. Besides, the inhibition of growth at 20 ppm in the data set on Fusarium culmorum [3] is no less than 80%. The compound further registered an inhibition of growth at 20 ppm in data set [4] of no less than 80%. For the same compound, the inhibition of growth at 20 ppm in data set [7] was no less than 80%. Moreover, the pest or weed control at 200 ppm in data set [5] is no less than 80%. Besides, the inhibition of growth at 20 ppm with Sclerotinia sclerotiorum was no less than 80%.

`CC(CC1CCCCC1)(CC(F)(F)F)NC(=O)c1cnc2c(F)c(F)ccc2c1` (stereo not shown) [E-58] displayed a melting point of 99 to 102 °C. The inhibition of growth at 20 ppm in [1] is no less than 80%. In addition, the inhibition of growth at 20 ppm in data set [2] was no less than 80%. Moreover, in the data set with Fusarium culmorum [3], the inhibition of growth at 20 ppm was no less than 80%. This compound displayed an inhibition of growth at 20 ppm in data set [4] of no less than 80%. Further, the inhibition of growth at 20 ppm in data set [7] was no less than 80%. The pest or weed control at 200 ppm in [5] was no less than 80%. Also, the inhibition of growth at 20 ppm with Sclerotinia sclerotiorum was no less than 80%.

For the compound `CC(CC1CCCC1)(CC(F)(F)F)NC(=O)c1cnc2c(F)cccc2c1` (stereo not shown) [E-59], the melting point was in the range of 100 to 102 °C. In data set [1], the inhibition of growth at 20 ppm is no less than 80%. The inhibition of growth at 20 ppm in data set [2] was no less than 80%. The inhibition of growth at 20 ppm with Fusarium culmorum [3] is no less than 80%. Further, the pest or weed control at 200 ppm with Fusarium culmorum [6] is no less than 80%. The pest or weed control at 200 ppm in data set [8] was no less than 80%. The compound also showed an inhibition of growth at 20 ppm in data set [4] of no less than 80%. Moreover, in data set [7], the inhibition of growth at 20 ppm is no less than 80%. In addition, the pest or weed control at 200 ppm in [5] is no less than 80%. The inhibition of growth at 20 ppm in the data set with Sclerotinia sclerotiorum was no less than 80%.

`Cc1cccc2cc(C(=O)NC(C)(CC3CCCCC3)CC(F)(F)F)cnc12` (stereo not shown) [E-61] came in with a melting point of 107 to 110 °C. Moreover, the inhibition of growth at 20 ppm in data set [1] was no less than 80%. Besides, the inhibition of growth at 20 ppm in data set [2] is no less than 80%. In the data set with Fusarium culmorum [3], the inhibition of growth at 20 ppm is no less than 80%. The compound further returned an inhibition of growth at 20 ppm in data set [4] of no less than 80%. For the same compound, the inhibition of growth at 20 ppm in data set [7] was no less than 80%. Further, the pest or weed control at 200 ppm in data set [5] is no less than 80%. Moreover, in the data set on Sclerotinia sclerotiorum, the inhibition of growth at 20 ppm is no less than 80%.

In the case of `CC(CC1CCCCC1)(CC(F)(F)F)NC(=O)c1cnc2c(F)cccc2c1` (stereo not shown) [E-62], the melting point was 55 to 76 °C. In [1], the inhibition of growth at 20 ppm is no less than 80%. Moreover, the inhibition of growth at 20 ppm in data set [2] was no less than 80%. Also, the inhibition of growth at 20 ppm in the data set with Fusarium culmorum [3] was no less than 80%. The same compound had an inhibition of growth at 20 ppm in [4] of no less than 80%. Also, the inhibition of growth at 20 ppm in data set [7] is no less than 80%. Also, the pest or weed control at 200 ppm in data set [5] is no less than 80%. For the same compound, the inhibition of growth at 20 ppm in the data set with Sclerotinia sclerotiorum was no less than 80%.

`CC1(C[C@@](C)(CC(F)(F)F)NC(=O)c2cnc3c(F)cccc3c2)CC1` [F-2, 8-fluoro-N-[(1S)-3,3,3-trifluoro-1-methyl-1-[(1-methylcyclo-propyl)meth-yl]propyl]quinoline-3-carboxamide]: the inhibition of growth at 20 ppm (in data set [1]; in [2]; with Fusarium culmorum [3]; in data set [4]; in data set [7]) was no less than 80% each time. In addition, the pest or weed control at 200 ppm (with Fusarium culmorum [6]; in data set [8]; in [5]) was no less than 80% in each case.

On to `C[C@](CC1CCCCC1)(CC(F)(F)F)NC(=O)c1cnc2c(F)cccc2c1` [F-3, N-[(1S)-1-(cyclohexylmeth-yl)-3,3,3-trifluoro-1-methyl-propyl]-8-fluoro-quinoline-3-carboxamide], for which the melting point fell in the range of 132 to 133 °C. Also, in data set [1], the inhibition of growth at 20 ppm is no less than 80%. In addition, the inhibition of growth at 20 ppm in data set [2] was no less than 80%. Besides, the inhibition of growth at 20 ppm with Fusarium culmorum [3] is no less than 80%. For the same compound, the inhibition of growth at 20 ppm in data set [4] is no less than 80%. In addition, the inhibition of growth at 20 ppm in data set [7] was no less than 80%. Moreover, the pest or weed control at 200 ppm in data set [5] is no less than 80%. The inhibition of growth at 20 ppm with Sclerotinia sclerotiorum is no less than 80%.

The compound `C[C@@](CC1CCCC1)(CC(F)(F)F)NC(=O)c1cnc2c(F)cccc2c1` [F-4, N-[(1R)-1-(cyclopentylmeth-yl)-3,3,3-trifluoro-1-methyl-propyl]-8-fluoro-quinoline-3-carboxamide] gave a melting point of 100 to 101 °C. The inhibition of growth at 20 ppm in [1] was no less than 80%. In data set [2], the inhibition of growth at 20 ppm is no less than 80%. Further, the inhibition of growth at 20 ppm in the data set on Fusarium culmorum [3] is no less than 80%. In [4], this compound gave an inhibition of growth at 20 ppm of no less than 80%. The inhibition of growth at 20 ppm in data set [7] was no less than 80%. In data set [5], the pest or weed control at 200 ppm was no less than 80%. In the data set on Sclerotinia sclerotiorum, the inhibition of growth at 20 ppm is no less than 80%.

One may read the melting point as the temperature of the solid-liquid transition.
